Experimental data as given in article PMC8880129, “Plant- and Bacteria-Derived Compounds with Anti-Philasterides dicentrarchi Activity” (Pathogens, 2022).
Values joined by “and” are separate entries in the source; they are usually repeats but may differ in a detail not shown here. Equal values may be shown once. Read-outs that look alike come from different tables or passages of the source.

Legend:
[1] = system: Philasterides dicentrarchi; assay: microbe, parasite or virus in culture; conditions: for Ciliate Mortality 3 h (%) / parasites killed after 24 h: 100 μM, culture medium; for Ciliate Mortality 3 h (%): mean ± SD of three replicates; for mortality at 100 µM / GI50 / inhibition at 100 µM: Philasterides dicentrarchi; for Ciliate Mortality 3 h (%) / mortality at 100 µM: 3 h; for mortality at 100 µM: read-out: Ciliate Mortality 3 h (%), 100 μM, 3 h, culture medium, mean ± SD of three replicates; for inhibition at 100 µM: read-out: Growth Inhibition 24 h (%), 100 μM, 24 h, culture medium, mean ± SD of three replicates; for effect on the ciliate (lysis, movement): microscopy observation
Description: P. dicentrarchi (isolate I1), obtained from an outbreak of scuticociliatosis in cultured turbot in Galicia, was routinely cultured at 18 °C in complete sterile L15 medium (Leibovitz, PAA Laboratories GmbH, 1% salinity, pH 7.2) containing 90 mg/L each of adenosine, cytidine, and uridine, 150 mg/L of guanosine, 5 g/L of glucose, 400 mg/L of L-α-phosphatidylcholine, 200 mg/L of Tween 80, 10% of heat-inactivated foetal bovine serum (FBS), and 10 mL/L of 100X antibiotic–antimycotic solution (100 units/mL of penicillin G, 0.1 mg/mL of streptomycin sulphate and 0.25 mg/mL of amphotericin B), as previously described. Alternatively, ciliates were cultured in seawater with autoclaved marine bacteria (10^6 cells/mL) supplied as food at 21 °C. The ciliates were cultured under normoxic conditions in tissue culture flasks fitted with vented caps that enabled aeration of the culture medium.
We tested the toxicity to P. dicentrarchi of 26 compounds of natural origin (Table 1). The compounds were prepared in 10 mM stock solutions in dimethyl sulfoxide (DMSO) and maintained at −20 °C until use. In addition, the Pseudomonas H6 lipopeptide surfactant (PS) was prepared, lyophilised and stored at −20 °C [37]. A stock solution of PS was prepared in distilled water (1000 ppm) and diluted in culture medium or seawater at the final concentrations used in each assay and sterile filtered (through 0.2 µm filters) before being added to the parasites or EPC cells.
The anticiliate activity was assayed as previously described, with minor modifications. Ciliates were concentrated by centrifugation at 650× g for 5 min and resuspended in a medium at the concentration required for the assays. All experiments were carried out in triplicate. Wells containing ciliates in a culture medium or seawater without the test compounds were assayed as negative controls. To rule out any possible effects of the solvent (DMSO), triplicate wells with a culture medium or seawater containing the highest concentration of DMSO used (up to 1%) were also included. […] In these assays, the compounds were diluted in 1 mL of culture medium or seawater and added to the wells of 24-well sterile culture plates containing 2.5 × 10^4 ciliates per well, at final concentrations of […], 6.25, 12.5, 25, 50, and 100 µM in culture medium. The effects of the compounds on the motility and morphology of the ciliates were monitored periodically (at 30 min, 1, 2, 3, 24, and 48 h) under an inverted optical microscope. Ciliates were considered dead when they lysed and were not motile. The results obtained are expressed as percentage mortality for each experimental group. To estimate the total number of ciliates per well, the ciliates were inactivated by adding 0.25% glutaraldehyde and counted in a haemocytometer under an optical microscope. The lowest dose of the selected compounds resulting in 100% ciliate mortality (LC100) was assessed at 1, 2, and 3 h after incubation of parasites with sample dilutions (from 0 to 100 μg/mL, in 10 μg intervals). The concentration that inhibited 50% of ciliate growth (GI50), in comparison with the control group, was calculated with Excel software (Microsoft Office; Microsoft, Redmond, WA, USA) by plotting the dose-response data (log dose-per cent of growth inhibition) and applying linear regression (y = mx + b) for data fitting. The values were then calculated from the equation log GI50 = (50 − b)/m, where m is the slope y1 − y2/x1 − x2, and b is the intercept of the line.

[2] = system: Philasterides dicentrarchi; assay: Anticiliate activity, ciliates maintained in seawater (LC100, LC50); format: cell-based; conditions: 3 h incubation
Description: All experiments were carried out in triplicate.

[3] = Toxicity to EPC cell line, MTT assay; format: cell-based, fish; conditions: fish, compound at its GI50 (24 h), MTT, read-out: EPC Cell Viability (%) Mean ± SD; for viability at 3 h: 3 h incubation; for viability at 24 h: 24 h incubation
Description: (§1) We used the Epithelioma Papulosum Cyprini (EPC) cell line, acquired from the American Type Culture Collection (ATCC®, Manassas, VA, USA), as a control for toxicity. The cell line, kindly provided by Doctors Pereira-Dopazo and Bandin from the Aquaculture Institute of the University of Santiago de Coompostela, was cultured in MEM medium equilibrated with Hanks’ balanced salts (Gibco, Thermo Fischer Sci., Waltham, MA, USA) supplemented with 10% foetal bovine serum and 10 mL/L of 100X antibiotic–antimycotic solution. Cells were maintained subconfluent at 25 °C in a cell culture incubator and used when the confluence reached 75%.
(§2) Cell viability was then estimated by the MTT (3-(4,5-dimethylthiazol-2-yl)-2,5-diphenyl tetrazolium bromide) assay, as previously described, with minor modifications. Briefly, 100 μL of the MTT solution (1 mg/mL in phosphate-buffered saline; pH 7.2) was added to each well, and plates were incubated at 25 °C for 4 h. The yellow tetrazolium salt of MTT is reduced by mitochondrial dehydrogenases in metabolically active cells to form insoluble purple formazan crystals, which are then dissolved by the addition of DMSO (50 μL/well). Prior to the addition of MTT or DMSO, the plates were washed, and the supernatant was removed. The absorbance was measured at 540 nm in a microplate reader (Multiskan™, Thermo Fischer Sci., Waltham, MA, USA), and the relative cell viability was expressed as the mean percentage of viable cells relative to untreated cells.
(§3) In the viability assay, the possible effect of DMSO was evaluated for each compound by the inclusion of three replicate wells with MEM medium and the same DMSO concentration as in the medium. […] Control cells with only MEM were also included in the assay.

[4] = system: EPC cells; assay: Toxicity to EPC cell line, MTT assay; format: cell-based, fish; conditions: 24 h incubation, compound at its GI50 (24 h)
Description: as §1, §2, §3

[5] = system: Saprolegnia delica; parameters: method as in PMID 32154278; conditions: 0.1 mM; cited from earlier work
[6] = system: Gyrodactylus kobayashii; parameters: method as in doi:10.1016/j.aquaculture.2021.736372; conditions: exposure to 2.0 μg/mL; cited from earlier work
[7] = system: goldfish; parameters: method as in doi:10.1016/j.aquaculture.2021.736372; conditions: cited from earlier work
[8] = system: Amyloodinium ocellatum; parameters: method as in PMID 32154278; conditions: 24 h incubation period; cited from earlier work
[9] = system: S. parasitica; parameters: method as in PMID 32154278; conditions: 0.1 mM; cited from earlier work
[10] = system: rainbow trout; parameters: method as in PMID 17979099; conditions: 100 to 2000 ppm in the diet for four weeks; cited from earlier work
[11] = 24 h, read-out: GI50 24 h (compound concentration that inhibited 50% of parasite growth)
[12] = 48 h, read-out: GI50 48 h (compound concentration that inhibited 50% of parasite growth)

## CC1=CC(=O)c2c(O)cccc2C1=O [Plumbagin]
[1]
  Ciliate Mortality 3 h (%): 100%
  mortality at 100 µM: > 90%
  effect on the ciliate (lysis, movement): inhibited the ciliate movement, but it did not cause cell lysis for several hours
[1]; 24 h
  parasites killed after 24 h: killed all the parasites
  inhibition at 100 µM: 100%
[1]; [11]
  GI50: 12.9 ± 1.16 µM
[1]; 24 h, read-out: GI50 24 h expressed in μg/mL
  GI50: 2.42 µg/mL
[1]; [12]
  GI50: 9.65 ± 0.67 µM
[2]
  LC100 (lowest concentration resulting in 100% ciliate mortality): 30 µM
[3]
  viability at 3 h: 78.7 ± 1.4%
  viability at 24 h: 74.2 ± 3.94%
[4]
  EPC cells killed: 26%
[5]
  growth of Saprolegnia delica: inhibiting
[6]
  time to complete death of Gyrodactylus kobayashii: ≤ 45 min
[7]
  concentration toxic to goldfish: higher than 0.5 mg/L

## C[C@H]1CC[C@]2(NC1)O[C@H]1C[C@H]3[C@@H]4CC[C@H]5C[C@@H](O[C@@H]6O[C@H](CO)[C@H](O[C@@H]7O[C@H](CO)[C@@H](O)[C@H](O[C@@H]8OC[C@@H](O)[C@H](O)[C@H]8O)[C@H]7O[C@@H]7O[C@H](CO)[C@@H](O)[C@H](O)[C@H]7O)[C@H](O)[C@H]6O)CC[C@]5(C)[C@H]4CC[C@]3(C)[C@H]1[C@@H]2C [Tomatine]
[1]
  Ciliate Mortality 3 h (%): 93.33 ± 2.31%
  mortality at 100 µM: > 90%
  effect on the ciliate (lysis, movement): very quick lysis of the ciliate
[1]; 24 h
  parasites killed after 24 h: killed all the parasites
  inhibition at 100 µM: 100%
[1]; [11]
  GI50: 10.1 ± 1.27 µM
[1]; [12]
  GI50: 8.51 ± 0.2 µM
[2]
  LC100 (lowest concentration resulting in 100% ciliate mortality): 10 µM
[3]
  viability at 3 h: 63 ± 6.82%
  viability at 24 h: 57.6 ± 7.7%
[4]
  EPC cells killed: 43%
[8]
  doses inhibiting dinospore motility: 6.25–50 μg/mL and 0.006–0.05 mM
[5]
  growth of Saprolegnia delica: inhibited
[9]
  radial growth of S. parasitica: inhibited
[10]
  toxic effects of administration in the diet: did not have toxic effects
